Experimental data: a melting point compilation (Tetko et al.; mined from patent text by program, amines drawn as free bases though some values may be those of a salt)

`COC(=O)Cn1ccc2ccc(-c3csc(-c4ccccc4)n3)cc21` and `CC(=O)OCc1cccc2sc(-c3ccccc3)nc12` cannot be ordered by melting point: 83 °C for the first, 83 to 84 °C for the second.

Compared with `COc1nc(OC)nc(SC(C(=O)O)C2CCCC2)n1` (centres undefined), `CC(C)(C)C(O)(Cn1cncn1)C1CCCCC1` (centres undefined) is lower in melting point: 106 to 110 °C for the first, 100 to 102 °C for the second.

First: Cc1cc(Cl)ccc1Oc1ccc(NC(=O)N2CCc3ccccc3CC2)cn1
Second: COc1cc(Cl)ccc1C(=O)NC1CN(c2ccc(F)cc2)CCn2c1nc(-c1ccncn1)cc2=O (racemic)
The melting point of the first is lower: 151 to 153 °C for the first, 207 to 209 °C for the second.

First: FC(F)(F)c1nc(-c2ncn3c2nc(N2CCOCC2)c2ccccc23)no1
Second: Cn1c(=O)c2c(C#N)cccc2n2cnc(-c3noc(C4CC4)n3)c12
The melting point of the first is higher: 182 to 186 °C for the first, 115 to 125 °C for the second.

First: CCCCc1nc2ccccc2n1Cc1ccc(C(=O)Nc2cccc3[nH]ccc23)cc1
Second: O=C(O)c1ccc(CO/N=C/c2cc3ccccc3n2Cc2ccccc2)cc1Br
The melting point of the first is higher: 196 °C for the first, 148 to 149 °C for the second.

Compared with `Cc1cn(-c2ccc(S(N)(=O)=O)c(F)c2)c(-c2ccc(-c3cscn3)cc2)n1`, `CCc1nc(-c2cccc(C(=O)OC)c2)c(-c2ccnc(N)c2)s1` is higher in melting point: 145 to 147 °C for the first, 173 to 174 °C for the second.

First: O=C(NC1CCc2[nH]c3ccc(OC(F)(F)F)cc3c2C1)OCc1ccccc1 (centres undefined)
Second: Oc1cccc([C@H]2CCCC[C@H]2NCCCc2ccccc2)c1 (racemic)
The melting point of the first is higher: 123 to 126 °C for the first, 112 to 113 °C for the second.

First: CC(C)Nc1c(C#N)cnn1-c1c(Cl)cc(SC(F)(F)F)cc1Cl
Second: Cc1cc(C2=CO[C@@](c3cc(Cl)cc(Cl)c3)(C(F)(F)F)C2)ccc1C(=O)NC1CS(=O)(=O)C1
The melting point of the first is higher: 130 °C for the first, 90 to 105 °C for the second.

First: O=C(Nc1ccncc1)c1cc2ccnc(Cl)c2[nH]1
Second: CN(c1cccc2cc(-c3nccs3)[nH]c12)S(=O)(=O)c1ccsc1C(=O)O
The melting point of the first is higher: greater than 320 °C for the first, 225 °C for the second.

Compared with `CCNC(=S)Nc1ccc(NNC(C)=O)cc1`, `CCCCCCC(=O)c1ccc(O)cc1` is lower in melting point: 191 to 193 °C for the first, 93 °C for the second.

First: CC(C)c1cc2cc(O)ccc2c(Oc2ccc(/C=C/C(=O)O)cc2)c1-c1ccccc1
Second: O=c1[nH]nc(-c2ccc(NN=C(c3ccc(O)cc3)c3ccc(O)cc3O)cc2)c2ccccc12
The melting point of the first is higher: 198 to 199 °C for the first, 150 to 160 °C for the second.

First: C=CCN(CC=C)Cc1csc(-c2ncn3c2CN(C)C(=O)c2cc(F)ccc2-3)n1
Second: CN1Cc2c(C(=O)N3CCN(C(=O)c4ncn5c4CN(C)C(=O)c4cc(Cl)ccc4-5)CC3)ncn2-c2ccc(Cl)cc2C1=O
The melting point of the first is lower: 125 to 127 °C for the first, 367 to 374 °C for the second.

First: CC(CO)(CO)OCc1ccccc1F
Second: OCCc1cn2ccccc2n1
The melting point of the first is lower: 74.5 to 75 °C for the first, 120 to 127 °C for the second.

Compared with `COc1ccc2c(c1)S(=O)(=O)C(C#N)=C(C)N2`, `CCOC(=O)C1=C(C)NC(COC(C)=O)=C(C(=O)OCC)C1c1ccc(OC)cc1` (centres undefined) is lower in melting point: 307 to 308 °C for the first, 89 to 90 °C for the second.

Compared with `CC(Cl)CC1Oc2ncccc2C(=S)NC1C` (centres undefined), `O=C(NCC1CCCCCC1)c1cc(-c2cccnc2C(=O)O)ccc1Cl` is higher in melting point: 95 to 97 °C for the first, 166 to 168 °C for the second.

First: Cc1cccc(-c2c(C)n(C)c(=O)n(C)c2=O)c1
Second: Cc1cc(-c2cccc(C(F)(F)F)c2)n2ccnc2n1
The melting point of the first is lower: 137 to 139 °C for the first, 170 to 172 °C for the second.

First: CN1CCNCC(NC(=O)c2n[nH]c3ccccc23)C1 (centres undefined)
Second: CCOC(=O)c1cn(N(C)C)c2ccccc2c1=O
The melting point of the first is higher: 163 to 166 °C for the first, 119 to 120 °C for the second.

First: CN1CCC(C(=O)N(C)c2ccc(C(=O)N3CCCCc4ccccc43)cc2)CC1
Second: CN(C)C(=O)CCc1c2n(c(=O)c3ccccc13)CCc1ccccc1-2
The melting point of the first is higher: 194 to 197 °C for the first, 192 to 194 °C for the second.

Compared with `CC(C)S(=O)(=O)Nc1cccc2c3c([nH]c12)C(=O)CCC3`, `COC(=O)[C@@H]1CCCN1S(=O)(=O)c1ccc(Cl)c(COc2cccc3c(C)cc(C)nc23)c1OC` is lower in melting point: 267 to 268 °C for the first, 66 to 70 °C for the second.

Compared with `Cc1nc(C23CC4CC(CC(C4)C2)C3)oc1COC(=O)C(C)(C)O`, `CCOC(=O)CNc1cnc(-c2ccc(OCc3ccccc3)c(C34CC5CC(CC(C5)C3)C4)c2)nc1` is higher in melting point: 68 to 70 °C for the first, 153 to 156 °C for the second.

First: CCN(CC)C(=O)c1cc(-c2ccccc2)c(=O)n2c1-c1ccccc1C2
Second: CN(C)CCC1=Cc2ccccc2N(C)c2ccccc21
The melting point of the first is higher: 170 to 172 °C for the first, 78 °C for the second.

First: COC(=O)/C=C/c1nc(C=O)ccc1OC
Second: COC(=O)c1ccc(OC)c(O)c1
The melting point of the first is higher: 132 to 134 °C for the first, 62 to 63 °C for the second.

First: COc1ccc2c(=O)cc(-c3ccc(O)c(O)c3)oc2c1
Second: COc1c(Oc2ccccc2C)cccc1C(N)C(=O)O (centres undefined)
The melting point of the first is higher: greater than 240 °C for the first, 169 to 170 °C for the second.

First: CC1(C)OC(=O)C(COS(C)(=O)=O)(c2ccc(Cl)cc2Cl)O1 (centres undefined)
Second: O=c1oc(C(F)(F)F)ccc1-c1ccc(Cl)cc1F
The melting point of the first is lower: 98 to 100 °C for the first, 107 to 108 °C for the second.

First: Cc1ccc2c(c1)C=Cc1nc(C)oc1C2c1cn(Cc2cccc(C(=O)O)c2)c(=O)[nH]c1=S (centres undefined)
Second: O=C(O)c1ccc2c(c1)C(=O)C(=Cc1ccccc1)O2
The melting point of the first is lower: 180 °C for the first, 285 to 287 °C for the second.

`CC1(c2cccc(NS(C)(=O)=O)c2)C2CN(C(=O)CCc3ccsc3)CC21` (centres undefined) and `C[C@]1(CN2CCN(C(=O)COc3ccc(Cl)cc3)CC2)Cn2cc([N+](=O)[O-])nc2O1` cannot be ordered by melting point: 180 °C for the first, 179 to 180 °C for the second.

Compared with `COC(=O)c1nc(Cl)nc(N)c1Cl`, `N#Cc1nc(-c2cc(Cl)cc(Cl)c2Cl)c(N)nc1N` is higher in melting point: 164 to 166 °C for the first, 277 to 279 °C for the second.

Compared with `CCOC(=O)C1=CCCCC1S(=O)(=O)Nn1c(Br)ccc1Br` (centres undefined), `CCOC(=O)c1ncoc1-c1ccc([N+](=O)[O-])cc1OC` is lower in melting point: 123 to 124 °C for the first, 106 to 107 °C for the second.

First: CC(C)(C)CCCCCCCCCCCC(=O)O
Second: CCCCCCCCCCCCc1nnn(C(C(N)=O)c2c(C(C)C)cccc2C(C)C)n1 (centres undefined)
The melting point of the first is lower: 37 to 39 °C for the first, 91 to 93 °C for the second.

Compared with `O=C(Nc1ccccc1S(=O)(=O)c1ccccc1)N[C@@H](Cc1ccc(Nc2nccc3ccncc23)cc1)C(=O)O`, `COc1ccc(OC)c(S(=O)(=O)c2ccc(Cl)cc2NC(=O)N[C@@H](Cc2ccc(NC(=O)c3c(Cl)cccc3Cl)cc2)C(=O)O)c1` is lower in melting point: 184 °C for the first, 180 °C for the second.

Compared with `NC(=O)C1(CCCN2CCCCC2)CC=CCC1c1ccccc1` (centres undefined), `CC(CNC(=O)c1ccc(N2CCC(N3C(=O)C(F)(F)c4ccccc43)CC2)nn1)C1CC1` (centres undefined) is lower in melting point: 121 to 122 °C for the first, 51 to 53 °C for the second.

First: Cc1ccn(-c2ccc(C(=O)c3cccc4c3Nc3ncccc3C(C)N4)c(C(F)(F)F)c2)n1 (centres undefined)
Second: CC(C)n1nc(-c2c(-c3ccccc3)nn3ccc(OCC(=O)NC4CCC(O)CC4)cc23)ccc1=O (centres undefined)
The melting point of the first is higher: 188 to 190 °C for the first, 146 to 148 °C for the second.

First: CC(C)C[C@H](NC(=O)[C@H](Cc1c[nH]cn1)NC(=O)C(CC(=O)NCCc1ccccc1)Cc1cccc2ccccc12)[C@@H](O)CCO (some centres undefined)
Second: C=CC[C@H](C(N)=O)[C@@H](CC(C)C)C(=O)NC1N=C(N(C)c2ccccc2)c2ccccc2N(C)C1=O (some centres undefined)
The melting point of the first is lower: 87 to 92 °C for the first, 267 to 268 °C for the second.

Compared with `O=[N+]([O-])c1ccc(/C=C/c2ccccn2)cc1`, `Cc1ccc(C(=O)C=Cc2cc(O)c(O)c([N+](=O)[O-])c2)cc1` is higher in melting point: 136 to 139 °C for the first, 184 to 186 °C for the second.

First: COc1ccc(N2CCN(Cc3cn(C)c4ncccc34)CC2)cc1
Second: COc1ccnc(CCc2nc3cc(-c4ccc(S(=O)(=O)N5CCN(c6ccc(C#N)cc6)CC5)cc4)cnc3[nH]2)c1
The melting point of the first is lower: 92 to 94 °C for the first, 217 to 219 °C for the second.

Compared with `CCN(SN(C)C=Nc1ccc(C)cc1C)c1ccccc1`, `CN(C(=O)c1cccc(C=O)c1)c1cccc(F)c1` is higher in melting point: 52 to 53 °C for the first, 115 to 119 °C for the second.

First: Cc1cc(Br)ccc1-n1ccc(O)n1
Second: CCCCOc1ccc(-c2nc(-c3ccccc3Cl)nn2C)c(Cl)c1
The melting point of the first is higher: 208 to 210 °C for the first, 60 to 62 °C for the second.

Compared with `O=C1NCCSc2ccsc21`, `O=[N+]([O-])c1cc(CO)ccc1Br` is lower in melting point: 186 to 188 °C for the first, 61 to 62 °C for the second.

Compared with `CN(C)c1ncc(Br)cn1`, `Clc1ccc2ncc(Cl)n2n1` is higher in melting point: 81 to 82 °C for the first, 120 to 121 °C for the second.

First: CC(C)(C)OC(=O)N1CCC(=CS(=O)(=O)NC(=O)c2cc(C(F)(F)F)cc(C(F)(F)F)c2)CC1
Second: COc1cc(NC(=O)CCCCCN2CCN(C)CC2)c2nccc(C)c2c1
The melting point of the first is higher: 132 to 136 °C for the first, 104 to 107 °C for the second.

Compared with `CCOC(=O)c1cn(OC)c2nc3cc(N4CC(NC)C4)c(F)cc3cc2c1=O`, `CNc1nc(-c2cncc(-c3ccccc3)c2)c2cc(OC)c(OC)cc2n1` is lower in melting point: 234 °C for the first, 177 to 179 °C for the second.

First: O=C1CCC(N2Cc3cc(CNC(=O)Nc4ccc(SC(F)(F)F)cc4)ccc3C2=O)C(=O)N1 (centres undefined)
Second: CC(C)(C)OC(=O)Nc1cc(OCC2COC(=O)O2)c(C#Cc2ccccc2)cc1NC(=O)CC(=O)c1cccc(C#N)c1 (racemic)
The melting point of the first is higher: 218 to 220 °C for the first, 181 °C for the second.

First: OC[C@H]1O[C@@H](n2cnc3c(N[C@@H]4CCN(c5ccc(C(F)(F)F)cn5)C4)ncnc32)[C@H](O)[C@@H]1O
Second: CN1CCN(C)c2cccc(Nc3ncc(Cl)c(N[C@@H]4CCCC[C@H]4NS(C)(=O)=O)n3)c2C1=O
The melting point of the first is higher: 166 to 170 °C for the first, 160 °C for the second.

First: CC(C)(Cn1c(CO)nc2c(N)nc3ccccc3c21)NS(C)(=O)=O
Second: Nc1nc(N)c([N+](=O)[O-])c(OCc2ccccc2)n1
The melting point of the first is higher: 262 to 265 °C for the first, 194 to 195 °C for the second.

First: CC(c1oc2ccccc2c(=O)c1-c1ccccc1)n1nc(C#CC(C)(C)O)c2c(N)ncnc21 (centres undefined)
Second: Cc1c(C)c2c(c(C)c1N)CC(C)(Cc1ccccc1)O2 (centres undefined)
The melting point of the first is higher: 109 to 113 °C for the first, 68 to 69 °C for the second.

First: COc1cc(CC(C#N)=CNc2ccccc2)cc(OC)c1C(N)=O
Second: COc1cc(Nc2cc3c(cc2Nc2ccccc2)C(=O)NC3=O)cc(OC)c1OC
The melting point of the first is higher: 288 to 290 °C for the first, 203 to 205 °C for the second.

First: CCCC1=C(Br)c2cc3c(cc2C1)OCO3
Second: Clc1ccccc1-c1nc(-c2ccc3c(c2)OCO3)c(-c2ccc3c(c2)OCO3)[nH]1
The melting point of the first is lower: 96 to 97 °C for the first, 168 to 170 °C for the second.

First: CC(=O)OCc1nc(C(CN(C(C)=O)C(C)(C)C)OC(C)=O)ccc1OC(C)=O (centres undefined)
Second: COc1cccc(C(=O)O)c1I
The melting point of the first is lower: 60 to 64 °C for the first, 142 to 146 °C for the second.

First: COc1ccc2[nH]cc(-c3cc4c(OC)ncnc4[nH]3)c2c1
Second: CC(=Nc1c(C)cccc1C)C(C)=Nc1c(C)cccc1C
The melting point of the first is higher: greater than 260 °C for the first, 78 to 86 °C for the second.

Work on `CC(=O)C1CCC2C3CCC4=CC(=O)CCC4(CO)C3CCC12C` (centres undefined) yielded a melting point of 165 to 168 °C.
